How the values were obtained:
[1] = Metabolite identification in dog bile after administration of parent compound; type: in vivo, beagle dogs; conditions: for Relative Abundance of metabolite, Dog Bile (IV): only 2-4 hr samples analyzed, cannot distinguish between M6 and M7; for Excretion in bile: dog, after 5.0 mg/kg oral administration of parent
[2] = Metabolite identification, human cryopreserved hepatocyte incubation of parent compound; type: in vitro ADME; conditions: parent incubated up to four hours
Protocol: (§1) Hepatocytes: Rat, dog and human cryopreserved hepatocyte incubations were performed using 1-{2-[5-(3-Methyl-oxetan-3-ylmethoxy)-benzoimidazol-1-yl]-quinolin-8-yl}-piperidin-4-ylamine. Rat, dog and human cryopreserved hepatocytes were obtained from In Vitro Technologies, Baltimore, Md. and suspended in Williams E Media, available from Fisher-Scientific, to a final cell density of 1×10^6 viable cells/mL. 1-{2-[5-(3-Methyl-oxetan-3-ylmethoxy)-benzoimidazol-1-yl]-quinolin-8-yl}-piperidin-4-ylamine was incubated in these hepatocyte suspensions at a final concentration of […] at 37° C. in a shaking water bath for up to four hours. A 5 mL aliquot was removed from each incubation mixture immediately and at four hours after addition of substrate. The samples were prepared for analysis by mixing with two volumes of acetonitrile followed by centrifugation to pellet precipitated proteins. The […] were evaporated to dryness before analysis. Dried samples were reconstituted in 300 μL 50/50 10 mM ammonium formate, pH 3.0/acetonitrile, and 10 μL aliquots were analyzed by LC/MS/MS. 1-{2-[5-(2-Methoxy-ethoxy)-benzoimidazol-1-yl]-quinolin-8-yl}-piperidin-4-ylamine was incubated in dog hepatocytes under the same conditions as a positive control.
(§2) Separation of 1-{2-[5-(3-Methyl-oxetan-3-ylmethoxy)-benzoimidazol-1-yl]-quinolin-8-yl}-piperidin-4-ylamine and its metabolites in all samples was accomplished on a Zorbax SB-C18 reverse phase column (5 μm, 4.6×150 mm) at a flow rate of 1.0 mL/min. The mobile phase consisted of 10 mM ammonium formate, pH 3.0, (A) and acetonitrile (B). After injection of the sample, the column was washed with 10% B for 5 minutes followed by resolution of the metabolites with a linear gradient from 10% to 50% B over a 20-minute period. A 5-minute wash with 90% B followed by a 7-minute re-equilibration to 10% B was used between subsequent injections.
(§3) All Samples were analyzed by a Finnigan TSQ7000 mass spectrometer operated in positive ion mode with in-line ultraviolet detection (Shimadzu, λ=254 nm). Ionspray voltage and capillary temperature were maintained at 4.5 kV and 350 degrees Celsius, respectively. Product ion spectra were obtained with CID of 35 V; further fragmentation was obtained by conducting product ion scans with source CID of 10 V. Neutral loss scans of 176 (for glucuronide detection) were conducted with CID of 30 V.
(§4) The metabolites were initially identified by molecular ion (Q1) scans of the sample mixture. Potential metabolites were characterized by fragmentation of the metabolite molecular ions and comparison of the resulting fragmentation patterns with the 1-{2-[5-(3-Methyl-oxetan-3-ylmethoxy)-benzoimidazol-1-yl]-quinolin-8-yl}-piperidin-4-ylamine product mass spectrum.

[3] = Metabolite identification, rat cryopreserved hepatocyte incubation of parent compound; type: in vitro ADME; conditions: parent incubated up to four hours
Protocol: as §1, §2, §3, §4

[4] = Metabolite identification in dog plasma after intravenous administration of parent compound; type: in vivo, beagle dogs; conditions: for Relative Abundance of metabolite, Dog Plasma (IV): 2.0 mg/kg intravenous parent, 20 min, 40 min and 1 h samples
Protocol: Dog Plasma and Bile: Dog plasma was collected from beagle dogs following intravenous administration (2.0 mg/kg) of 1-{2-[5-(3-Methyl-oxetan-3-ylmethoxy)-benzoimidazol-1-yl]-quinolin-8-yl}-piperidin-4-ylamine. A 200 μL plasma sample from each dog was pooled for each timepoint. Three volumes of acetonitrile were added to the pooled plasma samples to precipitate proteins. Following centrifugation, the supernatant was recovered and dried at 37° C. under nitrogen and reconstituted in 150 μL 50/50 10 mM ammonium formate, pH 3.0/acetonitrile. A 20 μL aliquot was analyzed by LC/MS/MS.
as §2, §3, §4

[5] = Metabolite identification, human liver cytosol incubation of parent compound; type: in vitro ADME; conditions: parent incubated one hour; further: key: −: metabolite not observed; +: minor metabolite; +++: major metabolite
Protocol: (§5) Cytosol: 1-{2-[5-(3-Methyl-oxetan-3-ylmethoxy)-benzoimidazol-1-yl]-quinolin-8-yl}-piperidin-4-ylamine (10 μM) was incubated and prepared for analysis. Cryopreserved human liver cytosol from Tissue Transformation Technologies Inc., Edison, N.J., (lot: HHC-0255, ˜20 mg/mL) and dog liver cytosol (˜35 mg/mL) were thawed on ice immediately before the incubation. The cytosol was diluted 10-fold in 100 mM potassium phosphate buffer (pH 7.4) before addition of 1-{2-[5-(3-Methyl-oxetan-3-ylmethoxy)-benzoimidazol-1-yl]-quinolin-8-yl}-piperidin-4-ylamine (final concentration […]) for a final incubation volume of 2 mL. Samples were incubated for one hour in a 37° C. water bath, then quenched with two volumes of acetonitrile. Samples were vortexed and subsequently centrifuged at 3000 rpm. Samples were prepared for analysis by centrifugation at 3000 rpm to pellet the precipitated proteins and by evaporating the supernatant to dryness. The samples were reconstituted in 300 μL 50/50 10 mM ammonium formate, pH 3.0/acetonitrile. A 10 μL reconstituted aliquot was analyzed by LC/MS/MS. 1-{2-[5-(2-Methoxy-ethoxy)-benzoimidazol-1-yl]-quinolin-8-yl}-piperidin-4-ylamine was incubated in human and dog liver cytosol under the same conditions as a positive control.
as §2, §3, §4

[6] = Metabolite identification, dog liver cytosol incubation of parent compound; type: in vitro ADME; conditions: for Relative Abundance of metabolite, Dog Liver Cytosol: parent incubated one hour
Protocol: as §5, §2, §3, §4

[7] = Metabolite identification, dog cryopreserved hepatocyte incubation of parent compound; type: in vitro ADME; conditions: parent incubated up to four hours
Protocol: as §1, §2, §3, §4

[8] = Metabolite identification, human liver microsome incubation of parent compound; type: in vitro ADME; conditions: for Relative Abundance of metabolite, HLM-NADPH ctrl: human liver microsomes, control without NADPH; for Relative Abundance of metabolite, Human Liver Microsomes: parent incubated 1 h with NADPH, relative peak height on UV chromatogram
Protocol: (§6) Microsomes: 1-{2-[5-(3-Methyl-oxetan-3-ylmethoxy)-benzoimidazol-1-yl]-quinolin-8-yl}-piperidin-4-ylamine (10 μM) was incubated in mouse, rat, dog, monkey and human liver microsomes and collected for analysis. 1-{2-[5-(3-Methyl-oxetan-3-ylmethoxy)-benzoimidazol-1-yl]-quinolin-8-yl}-piperidin-4-ylamine, (final concentration […]) was incubated in mouse (0.45 mg/mL protein), rat ([…] protein), dog ([…] protein), monkey (0.42 mg/mL protein) and human liver microsomes (1.56 mg/mL protein) containing MgCl2 (10 mM) and NADPH (1 mM) in potassium phosphate buffer (100 mM, pH 7.4) at 37° C. The total volume of each reaction mixture was 5 mL containing a total cytochrome P450 concentration of […]. Each mixture was preincubated for 10 minutes before addition of NADPH to initiate the reaction. The reaction was stopped one hour after addition of NADPH by adding two volumes of acetonitrile to the reaction mixture. […] Samples were prepared for analysis by centrifugation at 300 rpm to pellet the precipitated proteins and by evaporating the supernatant to dryness. The dried […] were reconstituted in 600 μL 50/50 10 mM ammonium formate, pH 3.0/acetonitrile, and 10 μL aliquots were analyzed by liquid chromatography and mass spectroscopy (LC/MS/MS). 1-{2-[5-(2-Methoxy-ethoxy)-benzoimidazol-1-yl]-quinolin-8-yl}-piperidin-4-ylamine was incubated in dog liver microsomes under the same conditions as a positive control.
as §2, §3, §4

[9] = Metabolite identification, dog liver microsome incubation of parent compound; type: in vitro ADME; conditions: for Relative Abundance of metabolite, DLM-NADPH ctrl: dog liver microsomes, control without NADPH; for Relative Abundance of metabolite, Dog Liver Microsomes: parent incubated 1 h with NADPH
Protocol: as §6, §2, §3, §4

[10] = Metabolite identification, rat liver microsome incubation of parent compound; type: in vitro ADME; conditions: for Relative Abundance of metabolite, Rat Liver Microsomes: parent incubated 1 h with NADPH; for Relative Abundance of metabolite, RLM-NADPH ctrl: rat liver microsomes, control without NADPH
Protocol: as §6, §2, §3, §4

| SMILES | Relative Abundance of metabolite, Dog Bile (IV) [1] | Relative Abundance of metabolite, Human Hepatocytes [2] | Relative Abundance of metabolite, Rat Hepatocytes [3] | Relative Abundance of metabolite, Dog Plasma (IV) [4] | Relative Abundance of metabolite, Human Liver Cytosol [5] | Relative Abundance of metabolite, Dog Liver Cytosol [6] | Relative Abundance of metabolite, Dog Hepatocytes [7] | Excretion in bile [1] | Metabolite status in dog plasma ([4]; twenty minutes to one hour after 2.0 mg/kg intravenous administration of parent) | Metabolite status in dog liver cytosolic incubations [6] | Formation of M1, cofactor dependence ([8]; human) | Relative Abundance of metabolite, HLM-NADPH ctrl [8] | Relative Abundance of metabolite, Human Liver Microsomes [8] | Formation of M1, cytochrome P450 mediation ([9]; dog) | Relative Abundance of metabolite, DLM-NADPH ctrl [9] | Relative Abundance of metabolite, Dog Liver Microsomes [9] | Relative Abundance of metabolite, Rat Liver Microsomes [10] | Formation of M1, cofactor dependence ([10]; rat) | Relative Abundance of metabolite, RLM-NADPH ctrl [10] | Observation in bile ([1]; dog bile 2-4 hr post-dose of parent) |
| --- | --- | --- | --- | --- | --- | --- | --- | --- | --- | --- | --- | --- | --- | --- | --- | --- | --- | --- | --- | --- |
| CC(CO)(COc1ccc2c(c1)ncn2-c1ccc2cccc(N3CCC(N)CC3)c2n1)COC1O[C@H](C(=O)O)[C@@H](O)[C@H](O)[C@H]1O (stereo in doubt) [Metabolite M5, 6-(3-{1-[8-(4-Amino-piperidin-1-yl)-quinolin-2-yl]-1H-benzoimidazol-5-yloxy}-2-hydroxymethyl-2-methyl-propoxy)-3,4,5-trihydroxy-tetrahydro-pyran-2-carboxylic acid] | − | − | − | − | − | − | + (minor metabolite) |  |  |  |  |  |  |  |  |  |  |  |  |  |
| CC(CO)(CO)COc1ccc2c(c1)ncn2-c1ccc2cccc(N3CCC(N)CC3)c2n1 [Metabolite M1, 2-{1-[8-(4-Amino-piperidin-1-yl)-quinolin-2-yl]-1H-benzoimidazol-5-yloxymethyl}-2-methyl-propane-1,3-diol] | +++ (major metabolite) | +++ (major metabolite) | +++ (major metabolite) | +++ (major metabolite) | − | +++ (major metabolite) | +++ (major metabolite) | excreted in bile | major metabolite | predominant metabolite | NADPH dependent | + (minor metabolite) | +++ (major metabolite) | not mediated by cytochrome P450 | +++ (major metabolite) | +++ (major metabolite) | +++ (major metabolite) | NADPH dependent | + (minor metabolite) |  |
| CC(CO)(COc1ccc2c(c1)ncn2-c1ccc2cccc(N3CCC(N)CC3)c2n1)C(=O)O (stereo not drawn) [Metabolite M2, 3-{1-[8-(4-Amino-piperidin-1-yl)-quinolin-2-yl]-1H-benzoimidazol-5-yloxy}-2-hydroxymethyl-2-methyl-propionic acid] | + (minor metabolite) | +++ (major metabolite) | +++ (major metabolite) | − | − | − | + (minor metabolite) | excreted in bile |  |  |  | − | +++ (major metabolite) |  | − | + (minor metabolite) | − |  | − |  |
| NC1CCN(c2cccc3ccc(-n4cnc5cc(O)ccc54)nc23)CC1 [Metabolite M8, 1-[8-(4-Amino-piperidin-1-yl)-quinolin-2-yl]-1H-benzoimidazol-5-ol] | + (minor metabolite) | − | − | − | − | − | − |  |  |  |  | − | − |  | − | − | − |  | − | observed in bile |

Source: patent US20100016353A1, “BENZOIMIDAZOLE DERIVATIVES USEFUL AS ANTIPROLIFERATIVE AGENTS” (priority 2004, published 2010)
